Measurements: US5684151A, “1-arylsulphonyl, arylcarbonyl and 1-arylphosphonyl-3-phenyl-1,4,5,6-tetrahydropyridazines” (priority 1995, dated 1997)
Like-named read-outs stand apart in the source and are kept apart here.

Tested on: mouse (MC3T3-E1) and human (TE-85) osteoblast-line cells
Assay type: cell-based
Excerpt: Compounds of the present invention have utility to treat osteoporosis through enhancement of bone calcification rather than traditional approaches which generally involve inhibition of bone degeneration or resorption. The compounds of the present invention have been evaluated as stimulators of proliferation of osteoblast cell and chick calivaria bone organ culture which is predictive of enhancement of bone mass and bone formation in vivo.
The action of select compounds to stimulate osteoblast growth was measured in culture by estimating the rate of DNA synthesis by the rate of ^3 H-thymidine incorporation into DNA. Only cells undergoing mitosis synthesized new DNA and thus only these cells incorporated the radiolabelled DNA-specific thymidine. The stimulation of the proliferation and differentiation of bone-forming cells, osteoblasts, was a prerequisite for an increase in bone formation and bone mass. The ability of agents to increase osteoblast proliferation and differentiation can be predicted by their action on cultured osteoblast-line cells in vitro. In this test, mouse (MC3T3-E1) and human (TE-85) osteoblast-line cells (American Type Tissue Culture Collection, #CRL 1543, Rockville, Md. cloned by Sudo et al., Koriyama, Japan) were cultured in vitro and the effect of various agents were tested on osteoblast cell proliferation. Cells were harvested from large culture flasks where they were allowed to grow to near confluency using trypsin. The cells were plated into 96 well culture plates, 1600 cells in 100 μL per well in Dulbencos Modified Eagle's Medium (DMEM) with 25 mM HEPES buffer, L-glutamine (584 mg/L); D-glucose (4.5 g/L) supplemented with fetal bovine sera (10%); penicillin (100 units/mL) and streptomycin (100 mcg/mL); sodium pyruvate (10 μM final concentration). The cells were allowed to plate overnight in DMEM containing 10% fetal bovine sera at 37° C. in an atmosphere of 5% CO2/95% air. Following their placement into 96 well culture plates all the osteoblast-line cells, either the MC3T3-E1 or the TE-85 cell lines, were allowed an additional 24 hours preincubation period in media containing only 0.1% fetal bovine sera.
Twenty hours later, a 20 μL aliquot of media containing 0.4 μCi of ^3 H-thymidine was added to each culture well. The cells were then incubated an additional 4 hours. The incubation was terminated by aspirating the media and washing with HBSS (Hank's Balanced Salt Solution). The cells were then treated with 100 μL of 0.5% trypsin and 5.3 mM EDTA for 30 minutes at room temperature. The cells were then aspirated onto glass fiber filter and washed with water. The radioactivity on the filters was quantified by liquid scintillation spectroscopy. The rate of ^3 H-thymidine incorporation into DNA was then utilized as an index of cell proliferation. The results are shown in Table 13 expressed as % times control where the control is 100%. […]

SMILES | Osteoblast Cell Proliferation, 3H-thymidine incorporation vs control (100%) (10^-7) [%] | Osteoblast Cell Proliferation, 3H-thymidine incorporation vs control (100%) (10^-8) [%] | Osteoblast Cell Proliferation, 3H-thymidine incorporation vs control (100%) (10^-9) [%] | Osteoblast Cell Proliferation, 3H-thymidine incorporation vs control (100%) (10^-10) [%] | Osteoblast Cell Proliferation, 3H-thymidine incorporation vs control (100%) (10^-6) [%]
CC1CC(c2ccccc2)=NN(C(=O)c2ccc(Cl)c(Cl)c2)C1 (racemic) [Compound 233, (R,S)-1-(3,4-dichlorobenzoyl)-5-methyl-3-phenyl-1,4,5,6-tetrahydropyridazine] | 130 | 132 | 130 | 138 | –
CC1CC(c2ccccc2)=NN(C(=O)c2ccc(F)c(F)c2)C1 (racemic) [Compound 235, (R,S)-1-(3,4-difluorobenzoyl)-5-methyl-3-phenyl-1,4,5,6-tetrahydropyridazine] | 86 | 87 | 92 | 88 | –
CC1CC(c2ccccc2)=NN(C(=S)c2ccc(Cl)c(Cl)c2)C1 (racemic) [Compound 248, (R,S)-1-(3,4-dichlorothiobenzoyl)-5-methyl-3-phenyl-1,4,5,6-tetrahydropyridazine] | 142 | 130 | 140 | 149 | –
O=S(=O)(c1cccc2ccccc12)N1CCCC(c2ccc(Cl)cc2)=N1 [Compound 44] | 107 | 105 | 95 | 87 | 86
CCCCCCc1ccc(S(=O)(=O)N2CCCC(c3ccc(Cl)c(Cl)c3)=N2)cc1 [Compound 121] | 123 | 122 | 120 | 181 | 120
O=S(=O)(/C=C/c1ccc(-c2ccccc2)cc1)N1CCCC(c2ccc(Cl)c(Cl)c2)=N1 [Compound 168] | 82 | 82 | 76 | 109 | 67
Cc1ccc(/C=C/S(=O)(=O)N2CCCC(c3ccc(Cl)c(Cl)c3)=N2)cc1 [Compound 169] | 131 | 133 | 134 | 195 | 128
O=S(=O)(/C=C/c1ccc2ccccc2c1)N1CCCC(c2ccc(Cl)c(Cl)c2)=N1 [Compound 171] | 110 | 121 | 118 | 129 | 72
O=S(=O)(/C=C/c1ccccc1)N1CCCC(c2ccc3c(c2)CCCC3)=N1 [Compound 176] | 94 | 109 | 113 | 109 | 59
O=C(c1ccc(F)c(Br)c1)N1CCCC(c2ccccc2)=N1 [Compound 229] | 104 | 86 | 99 | 114 | –
